These results are taken from patent US11191769B2, “Fused thiophene compounds” (BioTheryX, Inc., priority 2018, dated 2021).

Common to all, as to assay type: cell-based
The subject of one assay is IL-2. The assay can be described thus: IL-2 fold-change assay, anti-CD3 stimulated PBMCs, Mesoscale. The conditions noted are these: PBMC, PBMCs on anti-human CD3 (OKT3) coated plates, 24 h, fold difference from the DMSO control. The procedure: For the IL-2 analysis, 96 well plates were precoated with 1 μg/mL anti-human CD3 antibody (OKT3, eBioscience Inc., San Diego, Calif.). After washing with PBS, the indicated compound was added (50 μL/well) followed by PBMCs diluted at 3-4 million cells/mL (150 μL/well). Plates were incubated for 24 h and the supernatants collected for Mesoscale IL-2 analysis. IL-2 activity is measured as fold difference from the DMSO control.
(§1) In each of Tables 5-7, the % inhibition values are reported as “A”, “B”, “C”, or “D”. “A” represents a % inhibition value of less than 50% (value <50%). “B” represents a % inhibition value of equal to or more than 50% and less than 70% (50%≤value<70%). “C” represents a % inhibition value of equal to or more than 70% and less than 90% (70%≤value<90%). “D” represents a % inhibition value of equal or more than 90% (value≥90%). In Table 8, the fold-change values are reported as “A”, “B”, “C”, or “D”. “A” represents a fold-change value of equal to or less than 1 (value≤1). “B” represents a fold-change value of more than 1 and equal to or less than 2 (1<value≤2). “C” represents a fold-change value of more than 2 and equal to or less than 3 (2<value≤3). “D” represents a fold-change value of more than 3 (value>3).

The target in another assay is T1, IKAROS (Homo sapiens, UniProt Q13422+Q96SW2).
T1 construct: endogenous in cells; host or cells: MV-4-11
Put plainly: IKAROS degradation assay (Western blot, MV-4-11 cells). The conditions noted are these: 6-8 hours; for IKAROS % degradation at 1 µM: MV4-11, 1 μM. The procedure: (§2) MV-4-11 cells were grown in RPMI 1640 media supplemented with 10% fetal bovine serum, streptomycin and penicillin.
(§3) Cells were cultured at approximately 10^6 cells per mL and incubated in DMSO or the indicated compound for 6-8 hours. Whole cell extracts were prepared using RIPA buffer according to manufacturer's protocol (Pierce). Briefly, 3×10^6 cells were washed once in PBS, the cell pellets were resuspended in RIPA buffer and allowed to incubate for 15 minutes on ice. Cells debris was removed by centrifugation and the cleared whole cell lysates were transferred to new tubes for further analysis.
(§4) For Western blot analysis, whole cell protein extracts were separated on 4-12% SDS-polyacrylamide gels, transferred to nitrocellulose and probed with the indicated primary antibodies. Membranes were subsequently washed and probed with the appropriate IRDye secondary antibodies (LI-COR). The signal was detected using the Odyssey Imaging System (LI-COR).
(§5) The following antibodies were used in these studies: Anti-eRF3/GSPT1: Abcam, ab126090 (Cambridge, Mass.); Anti-Ikaros: Abcam, ab191394 (Cambridge, Mass.); Anti-CK1α: Abcam, ab108296 (Cambridge, Mass.); β-actin (8H10D10) mouse monoclonal antibody: Cell Signaling Technology, #3700 (Danvers, Mass.); IRDye 680RD Goat anti-rabbit antibody: LI-COR, 926-68071 (Lincoln, Nebr.); IRDye 800CW Goat anti-mouse antibody: LI-COR, 926-32210 (Lincoln, Nebr.).
(§6) In each of Tables 1-4, the % degradation values are reported as “A”, “B”, “C”, or “D”. “A” represents a % degradation value of less than 25% (value<25%). “B” represents a % degradation value of equal to or more than 25% and less than 50% (25%≤value<50%). “C” represents a % degradation value of equal to or more than 50% and less than 75% (50%≤value <75%). “D” represents a % degradation value of equal to or more than 75% (value≥75%).
For orientation: Immunoblotting shows a protein as a band on a membrane.

For the next assay, the system named is TNFα. The assay can be described thus: TNF-α inhibition assay, LPS-induced PBMCs or CD14+ monocytes, Meso Scale. The conditions noted are these: 1 h pretreatment, 100 ng/mL LPS 18-24 h, supernatant. The procedure:
(§7) Either frozen primary blood mononuclear cells (PBMCs) or frozen CD14+ mobilized peripheral blood monocytes were purchased from AllCells (PB003F, Normal Peripheral Blood MNC (Alameda, Calif.)). Cells were quick thawed, washed 1-time with RPMI-1640 (10% FBS/1% Pen-Strep) and plated in 96 well plates at 200,000 cells per well. Cells were pretreated with DMSO only or with the indicated compound for 1 h and then induced with 100 ng/mL lipopolysaccharide (LPS) for 18-24 h. The supernatant was analyzed for IL-1β, IL-6, and TNFα, using Meso Scale assay according to manufacturer's protocol. The negative control wells were treated with DMSO.
as §1

In a further assay the test system is IL-6. Put plainly: IL-6 inhibition assay, LPS-induced PBMCs or CD14+ monocytes, Meso Scale. The conditions noted are these: 1 h pretreatment, 100 ng/mL LPS 18-24 h, supernatant. The procedure: as §7, §1
The test system of the next assay is IL-1β. The assay can be described thus: IL-1β inhibition assay, LPS-induced PBMCs or CD14+ monocytes, Meso Scale. The conditions noted are these: 1 h pretreatment, 100 ng/mL LPS 18-24 h, supernatant, read-out: I1-1β % Inhibition at 10 μM. The procedure:
as §7, §1

The next assay deals with MOLM-13 cells. The assay can be described thus: MOLM-13 cell viability assay (CellTiter-Glo). The conditions noted are these: Homo sapiens, MOLM-13, 72 h, 3 days, % of DMSO control. On the procedure: MOLM-13 cells were cultured in RPMI 1640 media supplemented with 10% fetal bovine serum, streptomycin and penicillin, and were plated in white walled 96-well plates at 2500 cells/well. Cells were incubated in DMSO (control) or the indicated compound for 3 days at 37° C. and 5% CO2. Following the incubation period, 100 μL of CellTiterGlow (CTG) reagent (CellTiter-Glo® Luminescent Cell Viability Assay, Promega (Madison, Wis.)) was added to each well. Following a 10 minutes incubation with shaking, luminescence was measured using the EnVision Multimode plate reader.
The MOLM-13 cell viability values as % DMSO are reported as “A”, “B”, “C”, or “D”. “A” represents a % viability value of less than 25% (value<25%). “B” represents a % viability value of equal to or more than 25% and less than 50% (25%≤value<50%). “C” represents a % viability value of equal to or more than 50% and less than 75% (50%≤value<75%). “D” represents a % viability value of equal or more than 75% (value≥75%).
A general note: In ATP-based viability assays light output follows the ATP content of the culture.

A further assay has as its target T2, CK1α (Homo sapiens, UniProt P48729+Q96SW2).
T2 construct: Whole cell extracts were prepared using RIPA buffer; endogenous in cells; host or cells: MV-4-11
Put plainly: CK1α degradation assay (Western blot, MV-4-11 cells). The conditions noted are these: MV4-11, 6-8 hours. The procedure: as §2, §3, §4, §5, §6

T1 sequence (Q13422 whole entry): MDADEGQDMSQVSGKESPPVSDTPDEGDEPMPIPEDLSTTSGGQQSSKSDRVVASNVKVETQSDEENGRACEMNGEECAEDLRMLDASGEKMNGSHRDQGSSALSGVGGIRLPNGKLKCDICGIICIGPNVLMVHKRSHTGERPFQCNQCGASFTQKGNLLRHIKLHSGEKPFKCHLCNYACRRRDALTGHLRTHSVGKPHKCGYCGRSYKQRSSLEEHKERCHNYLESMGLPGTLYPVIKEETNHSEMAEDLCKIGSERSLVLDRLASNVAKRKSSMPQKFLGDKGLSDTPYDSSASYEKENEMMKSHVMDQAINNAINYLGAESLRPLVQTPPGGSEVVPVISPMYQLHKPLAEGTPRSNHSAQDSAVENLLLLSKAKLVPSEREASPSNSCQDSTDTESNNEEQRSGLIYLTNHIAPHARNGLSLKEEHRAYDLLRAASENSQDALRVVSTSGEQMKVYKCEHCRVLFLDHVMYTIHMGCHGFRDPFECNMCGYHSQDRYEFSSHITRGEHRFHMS
T1 sequence (Q96SW2 whole entry): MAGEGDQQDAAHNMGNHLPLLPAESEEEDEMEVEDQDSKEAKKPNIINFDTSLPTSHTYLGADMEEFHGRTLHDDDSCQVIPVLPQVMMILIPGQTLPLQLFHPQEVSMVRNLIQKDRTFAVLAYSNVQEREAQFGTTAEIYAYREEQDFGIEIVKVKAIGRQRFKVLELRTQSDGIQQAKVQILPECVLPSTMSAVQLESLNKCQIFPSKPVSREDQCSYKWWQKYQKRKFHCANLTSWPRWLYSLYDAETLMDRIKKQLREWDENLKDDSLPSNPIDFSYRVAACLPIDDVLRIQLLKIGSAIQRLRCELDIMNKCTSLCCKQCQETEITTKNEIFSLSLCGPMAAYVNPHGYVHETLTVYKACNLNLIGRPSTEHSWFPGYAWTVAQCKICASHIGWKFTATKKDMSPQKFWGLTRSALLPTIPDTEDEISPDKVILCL
T1 sequence (Q16531 whole entry partner): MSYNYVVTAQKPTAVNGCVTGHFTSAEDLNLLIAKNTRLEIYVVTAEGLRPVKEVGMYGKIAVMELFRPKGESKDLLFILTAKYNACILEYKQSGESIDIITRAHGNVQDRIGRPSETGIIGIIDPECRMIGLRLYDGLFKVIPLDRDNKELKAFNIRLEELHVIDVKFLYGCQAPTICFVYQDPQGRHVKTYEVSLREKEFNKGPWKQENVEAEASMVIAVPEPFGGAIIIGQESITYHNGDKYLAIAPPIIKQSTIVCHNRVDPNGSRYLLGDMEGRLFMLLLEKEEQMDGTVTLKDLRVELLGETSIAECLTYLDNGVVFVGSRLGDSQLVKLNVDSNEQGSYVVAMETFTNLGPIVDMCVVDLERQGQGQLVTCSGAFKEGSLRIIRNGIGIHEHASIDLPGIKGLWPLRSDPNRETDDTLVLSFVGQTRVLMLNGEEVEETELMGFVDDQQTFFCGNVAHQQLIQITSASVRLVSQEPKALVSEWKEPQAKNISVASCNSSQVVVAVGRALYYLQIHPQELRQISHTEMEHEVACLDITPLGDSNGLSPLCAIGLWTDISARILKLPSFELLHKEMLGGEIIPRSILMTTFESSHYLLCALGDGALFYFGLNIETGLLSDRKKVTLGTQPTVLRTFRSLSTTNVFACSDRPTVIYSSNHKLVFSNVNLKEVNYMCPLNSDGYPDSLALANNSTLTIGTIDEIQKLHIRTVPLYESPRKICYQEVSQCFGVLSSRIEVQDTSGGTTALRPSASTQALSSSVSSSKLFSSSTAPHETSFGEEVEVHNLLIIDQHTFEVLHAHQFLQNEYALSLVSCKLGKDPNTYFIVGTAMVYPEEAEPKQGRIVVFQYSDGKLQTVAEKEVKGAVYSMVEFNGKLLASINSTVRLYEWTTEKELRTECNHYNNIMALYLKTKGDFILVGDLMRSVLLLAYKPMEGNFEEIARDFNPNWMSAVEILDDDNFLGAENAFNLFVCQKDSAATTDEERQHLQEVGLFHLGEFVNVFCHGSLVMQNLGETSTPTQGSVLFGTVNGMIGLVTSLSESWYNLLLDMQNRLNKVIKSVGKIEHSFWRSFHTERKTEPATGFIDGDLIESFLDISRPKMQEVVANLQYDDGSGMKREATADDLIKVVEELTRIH
T2 sequence (P48729 whole entry): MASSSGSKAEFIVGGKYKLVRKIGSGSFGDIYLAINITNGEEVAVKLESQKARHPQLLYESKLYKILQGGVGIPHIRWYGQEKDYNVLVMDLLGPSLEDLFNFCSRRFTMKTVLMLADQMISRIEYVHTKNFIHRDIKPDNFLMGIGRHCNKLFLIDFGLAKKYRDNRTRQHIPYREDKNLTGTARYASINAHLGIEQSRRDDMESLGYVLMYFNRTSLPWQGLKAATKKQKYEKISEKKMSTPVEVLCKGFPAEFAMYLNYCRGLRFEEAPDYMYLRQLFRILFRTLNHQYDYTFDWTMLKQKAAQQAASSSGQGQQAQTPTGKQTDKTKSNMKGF
T2 sequence (Q96SW2 whole entry): as the sequence (Q96SW2 whole entry) above
T2 sequence (Q16531 whole entry partner): as the sequence (Q16531 whole entry partner) above

The molecule `O=C1CC[C@H](N2Cc3c(NCc4ccc(CN5CCOCC5)cc4)csc3C2=O)C(=O)N1` [Compound 3, (S)-3-(3-((4-(morpholinomethyl)benzyl)amino)-6-oxo-4H-thieno[2,3-c]pyrrol-5(6H)-yl)piperidine-2,6-dione] registered a fold induction at 10 µM in the assay on IL-2 of at most 1. The “IKAROS % Degradation at 10 μM” value at IKAROS is “C (“C” represents a % degradation value of equal to or more than 50% and less than 75% (50%≤value <75%))”. Moreover, the inhibition at 10 µM with TNFα is below 50%.
Molecule `O=C1CC[C@H](N2Cc3c(COc4ccc(CN5CCOCC5)cc4)csc3C2=O)C(=O)N1` [Compound 5, (S)-3-(3-((4-(morpholinomethyl)phenoxy)methyl)-6-oxo-4H-thieno[2,3-c]pyrrol-5(6H)-yl)piperidine-2,6-dione] came in with a fold induction at 10 µM in the assay with IL-2 of 1 to 2.
For `O=C1CC[C@H](N2Cc3c(csc3CCc3ccc(CN4CCOCC4)cc3)C2=O)C(=O)N1` [Compound 6, (S)-3-(1-(4-(morpholinomethyl)phenethyl)-4-oxo-4H-thieno[3,4-c]pyrrol-5(6H)-yl)piperidine-2,6-dione], the fold induction at 10 µM with IL-2 was 2 to 3. The figures for the inhibition at 10 µM with IL-6, in the assay on TNFα and with IL-1β were below 50%, 70 to 90% and 70 to 90%, respectively. At IKAROS, this molecule yielded an IKAROS % degradation at 1 µM of 25 to 50%.
In turn, `O=C1CC[C@H](N2Cc3c(csc3COc3cccc(CN4CCOCC4)c3)C2=O)C(=O)N1` [Compound 7, (S)-3-(1-((3-(morpholinomethyl)phenoxy)methyl)-4-oxo-4H-thieno[3,4-c]pyrrol-5(6H)-yl)piperidine-2,6-dione] yielded a fold induction at 10 µM in the assay with IL-2 of 2 to 3. This molecule gave an IKAROS % degradation at 1 µM at IKAROS of 50 to 75%. Besides, the inhibition at 10 µM in the assay on TNFα and in the assay with IL-1β was 70 to 90% in each case.
`O=C1CC[C@H](N2Cc3c(csc3COc3ccc(CN4CCOCC4)cc3F)C2=O)C(=O)N1` [Compound 8, (S)-3-(1-((2-fluoro-4-(morpholinomethyl)phenoxy)methyl)-4-oxo-4H-thieno[3,4-c]pyrrol-5(6H)-yl)piperidine-2,6-dione] showed a fold induction at 10 µM in the assay with IL-2 of 2 to 3. Besides, the inhibition at 10 µM was 70 to 90% with IL-6, above 90% in the assay on TNFα and above 90% in the assay with IL-1β. This molecule also came in with an IKAROS % degradation at 1 µM at IKAROS of 25 to 50%.
For `O=C1CC[C@H](N2Cc3c(csc3COCc3ccc(CN4CCOCC4)cc3)C2=O)C(=O)N1` [Compound 9, (S)-3-(1-(((4-(morpholinomethyl)benzyl)oxy)methyl)-4-oxo-4H-thieno[3,4-c]pyrrol-5(6H)-yl)piperidine-2,6-dione], in the assay on IL-2, the fold induction at 10 µM is above 3. Moreover, the inhibition at 10 µM with IL-6 was below 50%; with TNFα, above 90%; with IL-1β, 70 to 90%.
Turning to `O=C1CC[C@H](N2Cc3c(csc3CNc3ccc(CN4CCOCC4)cc3)C2=O)C(=O)N1` [Compound 10, (S)-3-(1-(((4-(morpholinomethyl)phenyl)amino)methyl)-4-oxo-4H-thieno[3,4-c]pyrrol-5(6H)-yl)piperidine-2,6-dione], in the assay with IL-2, the fold induction at 10 µM lay within 2 to 3. Besides, the inhibition at 10 µM in the assay with IL-6 was below 50%; in the assay on TNFα, above 90%; in the assay on IL-1β, 70 to 90%. Also, the viability at 10 µM in the assay with MOLM-13 cells lay within 25 to 50%.
In turn, `O=C1CC[C@H](N2Cc3c(CNc4ccc(CN5CCOCC5)cc4)csc3C2=O)C(=O)N1` [Compound 11, (S)-3-(3-(((4-(morpholinomethyl)phenyl)amino)methyl)-6-oxo-4H-thieno[2,3-c]pyrrol-5(6H)-yl)piperidine-2,6-dione] had a fold induction at 10 µM in the assay with IL-2 of 1 to 2. This molecule also registered a viability at 10 µM in the assay on MOLM-13 cells below 25%. For the same molecule, the inhibition at 10 µM in the assay on TNFα is below 50%.
With `O=C1CC[C@H](N2Cc3c(csc3COc3ccc(CN4CCOCC4)cn3)C2=O)C(=O)N1` [Compound 12, (S)-3-(1-(((5-(morpholinomethyl)pyridin-2-yl)oxy)methyl)-4-oxo-4H-thieno[3,4-c]pyrrol-5(6H)-yl)piperidine-2,6-dione], the fold induction at 10 µM in the assay on IL-2 is 1 to 2. Also, in the assay with TNFα, the inhibition at 10 µM was below 50%.
In the assay on IL-2, `O=C1CC[C@H](N2Cc3c(csc3COc3ccc(CCN4CCOCC4)cc3)C2=O)C(=O)N1` [Compound 15, (S)-3-(1-((4-(2-morpholinoethyl)phenoxy)methyl)-4-oxo-4H-thieno[3,4-c]pyrrol-5(6H)-yl)piperidine-2,6-dione] displayed a fold induction at 10 µM above 3. Also, the inhibition at 10 µM was 50 to 70% in the assay on IL-6, 70 to 90% with TNFα and above 90% with IL-1β. On CK1α, this molecule yielded a percent degradation at 1 µM of 25 to 50%. Besides, on IKAROS, the IKAROS % degradation at 1 µM lay in the range of 25 to 50%.
In the assay on IL-2, `O=C1CC[C@H](N2Cc3cc(COc4ccc(CN5CCOCC5)cc4)sc3C2=O)C(=O)N1` [Compound 16, (S)-3-(2-((4-(morpholinomethyl)phenoxy)methyl)-6-oxo-4H-thieno[2,3-c]pyrrol-5(6H)-yl)piperidine-2,6-dione] registered a fold induction at 10 µM of at most 1. In addition, at IKAROS, the “IKAROS % Degradation at 10 μM” value is reported as “A (“A” represents a % degradation value of less than 25% (value<25%))”. Also, the inhibition at 10 µM in the assay with TNFα was below 50%.
In the assay on IL-2, `O=C1CC[C@H](N2C(=O)c3csc(COc4ccc(CN5CCOCC5)cc4)c3C2=O)C(=O)N1` [Compound 20, (S)-5-(2,6-dioxopiperidin-3-yl)-1-((4-(morpholinomethyl)phenoxy)methyl)-4H-thieno[3,4-c]pyrrole-4,6(5H)-dione] registered a fold induction at 10 µM of 1 to 2. Besides, the viability at 10 µM in the assay with MOLM-13 cells was below 25%. The “IKAROS % Degradation at 10 μM” value on IKAROS was “B (“B” represents a % degradation value of equal to or more than 25% and less than 50% (25%≤value<50%))”. Also, the inhibition at 10 µM in the assay on TNFα and in the assay with IL-1β was 50 to 70% each time.

As a reminder, the fold induction is the signal under treatment as a multiple of the control signal. A word on the inhibition: it is the drop in the measured response relative to a control, in per cent. By viability is commonly meant the share of living cells, or the viability signal relative to a control. A lower viability goes with more harm to the cells.
